Experimental data as given in US20230391714A1, “INHIBITORS OF THE INTERACTION BETWEEN TRIP8B AND HCN CHANNELS AND USES THEREOF FOR TREATING NEUROLOGICAL DISEASES AND DISORDERS” (Northwestern University, priority 2022, published 2023).
pIC50: −log10 of the molar value. Read-outs that look alike come from different tables or passages of the source.

Biological target: TRIP8b-HCN1c40 (Homo sapiens (Human), UniProt Q8IYB4)
Experiment: TRIP8b-HCN1c40 AlphaScreen assay
Type: binding
Experimental: AlphaScreen Assay. 20 nM ofGST-tagged HCNlc40 protein (corresponding to the C terminal 40 amino acids of HCN1) was incubated with 200 nM of His-tagged TRIP8b(241-602) and varying concentrations of the test compound as described in our prior report (Han et al., 2015). After a 3 h incubation, anti-GST AlphaScreen acceptor beads were added for 1.5 h followed by AlphaScreen nickel chelate donor beads for 1.5 h. AlphaScreen signal was quantified using a PerkinElmer (Waltham, MA) EnSpire multimode plate reader.

[1] = activity ranges, read-out: TRIP8b-HCN1c40 Alphascreen IC50 activity
[2] = read-out: TRIP8b-HCN1c40 Alphascreen IC50

Sequence of TRIP8b-HCN1c40 (Q8IYB4 265-626): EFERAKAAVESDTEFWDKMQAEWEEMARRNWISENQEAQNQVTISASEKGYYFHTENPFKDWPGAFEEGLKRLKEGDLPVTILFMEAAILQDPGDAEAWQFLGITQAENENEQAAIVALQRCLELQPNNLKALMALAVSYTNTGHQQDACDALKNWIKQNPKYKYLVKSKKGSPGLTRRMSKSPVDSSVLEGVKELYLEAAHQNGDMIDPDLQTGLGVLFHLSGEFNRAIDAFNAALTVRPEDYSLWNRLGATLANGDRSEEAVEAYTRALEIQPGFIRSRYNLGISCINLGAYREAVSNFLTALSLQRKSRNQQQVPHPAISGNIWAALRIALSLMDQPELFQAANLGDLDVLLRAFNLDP

Row | Compound | pIC50 [1] | pIC50 [2]
1 | CN1CCN(Cc2ccc(-c3ccc(F)cc3)cc2OCC(=O)NCc2ccc(Cl)cc2)CC1 [NUCC-0202010] | 5.00 to 5.30 | 5.24
2 | CC(Oc1ccc(-c2ccc(O)cc2)cc1CN1CCN(C)CC1)C(=O)NCc1ccc(Cl)cc1 (centres unmarked) [NUCC-0202030] | 4.70 to 5.00 | 4.85
3 | CNC(=O)c1ccc(NC(=O)COc2ccc(-c3cccc(C)c3)cc2CN2CC[C@H](N)C2)cc1 [NUCC-0201623] | 4.40 to 4.70 | 4.66
4 | C=Cc1ccc(-c2ccc(OCC(=O)NCc3ccc(Cl)cc3)c(CN3CCN(C)CC3)c2)cc1 [NUCC-0201713] | 5.30 to 5.70 | 5.33
5 | CN1CCN(Cc2cc(-c3ccc(Cl)cc3)ccc2OCC(=O)NCc2ccc(Cl)c(Cl)c2)CC1 [NUCC-0201977] | > 6.00 | 6.06
6 | CN1CCN(Cc2cc(-c3ccc(CCl)cc3)ccc2OCC(=O)NCc2ccc(Cl)c(Cl)c2)CC1 [NUCC-0201971] | 5.00 to 5.30 | 5.18
7 | CC(Oc1ccc(-c2ccc(Cl)cc2Cl)cc1CN1CCN(C)CC1)C(=O)NCc1ccc(Cl)cc1 (centres unmarked) [NUCC-0202026] | > 6.00 | 6.04
8 | COc1cc(NC(=O)COc2ccc(-c3cccc(C)c3)cc2CN2CC[C@H](N)C2)cc(OC)c1OC [NUCC-0201620] | 4.70 to 5.00 | 4.89
9 | Cc1ccc(-c2ccc(OCC(=O)NCc3cnc[nH]3)c(CN3CCC(N(C)C)CC3)c2)cc1 [NUCC-0201612] |  | < 4.40
10 | CN1CCN(Cc2cc(-c3ccc(Cl)c(Cl)c3)ccc2OCC(=O)N2CCc3ccccc3C2)CC1 [NUCC-0201990] | > 6.00 | > 6.13
11 | Cc1ccc(-c2ccc(OC(C)C(=O)NCc3ccc(Cl)cc3)c(CN3CCN(C)CC3)c2)cc1 (centres unmarked) [NUCC-0202031] | 5.30 to 5.70 | 5.47
12 | CN1CCN(Cc2cc(-c3ccc(Cl)c(Cl)c3)ccc2OCC(=O)NCc2ccc(Cl)cc2)CC1 [NUCC-0201708] |  | > 6.13
13 | CN1CCN(Cc2cc(-c3ccc(F)c(C(F)(F)F)c3)ccc2OCC(=O)NCc2ccc(Cl)cc2)CC1 [NUCC-0201709] | 5.30 to 5.70 | 5.55
14 | Cc1ccccc1-c1ccc(OCC(=O)NCc2ccc(Cl)cc2)c(CN2CCNCC2)c1 [NUCC-0201617] | 5.00 to 5.30 | 5.11
15 | Cc1cccc(-c2ccc(OCC(=O)NCc3ccc(Cl)cc3)c(CN3CC[C@H](N)C3)c2)c1 [NUCC-0201625] | 5.00 to 5.30 | 5.21
16 | CN1CCN(Cc2cc(-c3ccc(N)cc3)ccc2OCC(=O)NCc2ccc(Cl)cc2)CC1 [NUCC-0202053] | 4.70 to 5.00 | 4.74
17 | CN1CCN(Cc2cc(-c3ccc(Cl)c(Cl)c3)ccc2OCC(=O)N2CCc3cc(Cl)ccc32)CC1 [NUCC-0201981] | > 6.00 | > 6.13
18 | Cc1ccc(-c2ccc(OCC(=O)Nc3ccc(Cl)cc3)c(CN3CCC(N(C)C)CC3)c2)cc1 [NUCC-0201608] | 5.00 to 5.30 | 5.15
19 | CN1CCN(Cc2cc(-c3ccc(Cl)cc3Cl)ccc2OCC(=O)NCc2ccc(Cl)c(Cl)c2)CC1 [NUCC-0201978] | > 6.00 | > 6.13
20 | CN1CCN(Cc2cc(-c3ccc(F)cc3)ccc2OCC(=O)NC2CC2)CC1 [NUCC-0201101] |  | 3.96
21 | Cc1ccc(-c2ccc(OCC(=O)NCc3ccc(F)cc3)c(CN3CCC(N(C)C)CC3)c2)cc1 [NUCC-0201609] | 4.70 to 5.00 | 4.80
22 | CN1CCN(Cc2cc(-c3c(Cl)cc(Cl)cc3Cl)ccc2OCC(=O)NCc2ccc(Cl)cc2)CC1 [NUCC-0201970] |  | > 6.13
23 | O=Cc1cc(-c2ccc(F)cc2)ccc1O [NUCC-0201191] |  | 4.24
24 | Cc1ccc(-c2ccc(OCC(=O)NCc3ccc(Cl)cc3)c(CN3CCNCC3)c2)cc1 [NUCC-0201614] | 5.00 to 5.30 | 5.14

Row | Compound | pIC50 [1] | pIC50 [2]
25 | CN1CCN(Cc2cc(-c3ccc(Cl)c(Cl)c3)ccc2OCC(=O)NCc2ccccc2Cl)CC1 [NUCC-0201983] | > 6.00 | 6.04
26 | CN1CCN(Cc2cc(-c3ccc(Cl)c(Cl)c3)ccc2OCC(=O)NCc2ccc(C(F)(F)F)cc2)CC1 [NUCC-0201982] | 5.30 to 5.70 | 5.60
27 | CN1CCN(Cc2cc(-c3ccc(Cl)c(Cl)c3)ccc2COC(=O)Nc2ccc3c(c2)OCO3)CC1 [NUCC-0202017] | > 6.00 | > 6.13
28 | CN1CCN(Cc2cc(-c3ccc(Cl)c(Cl)c3)ccc2OCC(=O)NCc2ccccc2)CC1 [NUCC-0201987] | 5.30 to 5.70 | 5.60
29 | CN1CCN(Cc2cc(-c3ccc(Cl)c(Cl)c3)ccc2OCC(=O)NCc2ccc(C#N)cc2)CC1 [NUCC-0201984] |  | 5.28
30 | Cc1cc(C)c(-c2ccc(OCC(=O)NCc3ccc(Cl)cc3)c(CN3CCNCC3)c2)c(C)c1 [NUCC-0201629] | 5.30 to 5.70 | 5.51
31 | CC(Oc1ccc(-c2ccc([N+](=O)[O-])cc2)cc1CN1CCN(C)CC1)C(=O)NCc1ccc(Cl)cc1 (centres unmarked) [NUCC-0202034] | 5.30 to 5.70 | 5.57
32 | CN1CCN(Cc2cc(-c3ccc(Cl)cc3Cl)ccc2OCC(=O)NCc2ccc(Cl)cc2)CC1 [NUCC-0202054] | > 6.00 | > 6.13
33 | CC(Oc1ccc(-c2ccc(C(F)(F)F)cc2)cc1CN1CCN(C)CC1)C(=O)NCc1ccc(Cl)cc1 (centres unmarked) [NUCC-0202029] | 5.30 to 5.70 | 5.35
34 | Cc1ccc(C(C)NC(=O)C(C)Oc2ccc(-c3cc(Cl)cc(-c4cc(Cl)cc(Cl)c4)c3)cc2CN2CCN(C)CC2)cc1 (centres unmarked) [NUCC-0202050] | > 6.00 | > 6.13
35 | CN1CCN(Cc2cc(-c3cccnc3)ccc2OCC(=O)Nc2ccc(Cl)c(Cl)c2)CC1 [NUCC-0202005] | 5.00 to 5.30 | 5.26
36 | Cc1cccc(-c2ccc(OCC(=O)Nc3cc(O)c(O)c(O)c3)c(CN3CC[C@H](N)C3)c2)c1 [NUCC-0201628] | 5.00 to 5.30 | 5.11
37 | Cc1cccc(-c2ccc(OCC(=O)Nc3ccc(O)cc3)c(CN3CC[C@H](N)C3)c2)c1 [NUCC-0201624] | 4.70 to 5.00 | 4.70
38 | CC(Oc1ccc(-c2ccc(F)cc2)cc1CN1CCN(C)CC1)C(=O)NCc1ccc(Cl)cc1 (centres unmarked) [NUCC-0202032] | 5.30 to 5.70 | 5.49
39 | CC(Oc1ccc(-c2ccc(Cl)cc2)cc1CN1CCN(C)CC1)C(=O)NCc1ccc(Cl)cc1 (centres unmarked) [NUCC-0202025] | 5.70 to 6.00 | 5.82
40 | COc1ncc(-c2ccc(OCC(=O)NCc3ccc(Cl)cc3)c(CN3CCN(C)CC3)c2)c(OC)n1 [NUCC-0201189] |  | 4.04
41 | CSc1ccc(-c2ccc(OCC(=O)NCc3ccc(Cl)cc3)c(CN3CCN(C)CC3)c2)cc1 [NUCC-0201710] | 5.30 to 5.70 | 5.54
42 | CN1CCN(Cc2cc(-c3cc(Cl)cc(Cl)c3)ccc2OCC(=O)NCc2ccc(Cl)c(Cl)c2)CC1 [NUCC-0201979] | > 6.00 | > 6.13
43 | CN1CCN(Cc2cc(-c3cc(Cl)cc(Cl)c3)ccc2OCC(=O)Nc2ccc(Cl)c(Cl)c2)CC1 [NUCC-0202003] | > 6.00 | > 6.13
44 | COc1ccc(CNC(=O)COc2ccc(-c3ccc(C)cc3)cc2CN2CCCN(C)CC2)c(OC)c1 [NUCC-0201599] | 4.70 to 5.00 | 4.82
45 | Cc1ccc([C@@H](C)NC(=O)C(C)Oc2ccc(-c3ccc(Cl)cc3)cc2CN2CCN(C)CC2)cc1 (some centres unmarked) [NUCC-0202046] | > 6.00 | 6.08
46 | Cc1ccc(-c2ccc(OCC(=O)NCc3ccc(S(N)(=O)=O)cc3)c(CN3CCCN(C)CC3)c2)cc1 [NUCC-0201597] |  | < 4.40
47 | Cc1ccc(-c2ccc(OCC(=O)NCc3ccc(Cl)cc3)c(CN3CCC(N(C)C)CC3)c2)cc1 [NUCC-0201607] | 5.00 to 5.30 | 5.26
